Reference: US4600689A, “Novel bilirubin oxidase, its production and use” (Takara Shuzo Co., Ltd., priority 1983, dated 1986)

Each compound was assayed against T1, novel bilirubin oxidase M-1 of Trachyderma tsunodae K-2593 (Trachydermella tsunodae, UniProt O61263) (assay: Effect of interfering agents on bilirubin oxidase activity (decrease in absorption at 460 nm of bilirubin)). Details: 10 min, pH 7, read-out: Percent interference (%).
T1 sequence (O61263 22-521): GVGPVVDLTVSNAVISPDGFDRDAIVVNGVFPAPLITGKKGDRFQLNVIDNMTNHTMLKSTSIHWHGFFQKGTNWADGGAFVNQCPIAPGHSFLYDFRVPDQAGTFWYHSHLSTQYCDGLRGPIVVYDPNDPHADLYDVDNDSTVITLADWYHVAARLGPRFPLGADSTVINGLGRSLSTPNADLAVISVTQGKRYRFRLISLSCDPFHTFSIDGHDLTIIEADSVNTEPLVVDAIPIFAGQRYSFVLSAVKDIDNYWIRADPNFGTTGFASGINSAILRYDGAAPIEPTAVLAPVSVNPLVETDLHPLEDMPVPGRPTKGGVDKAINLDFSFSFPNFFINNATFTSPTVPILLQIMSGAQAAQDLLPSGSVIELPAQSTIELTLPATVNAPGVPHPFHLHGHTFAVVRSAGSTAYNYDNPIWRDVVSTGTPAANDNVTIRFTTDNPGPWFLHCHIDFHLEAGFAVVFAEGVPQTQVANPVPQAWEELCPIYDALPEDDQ
Assay type: biochemical

**Q.** With `O=C(O)CN(CCN(CC(=O)O)CC(=O)O)CC(=O)O` [EDTA] as the compound, how does the inhibition at 1000 µM read?
**A.** The inhibition at 1000 µM was 59%.

**Q.** With `O=C(O)CI` [Iodoacetic acid] as the compound, how does the inhibition at 1000 µM read?
**A.** The inhibition at 1000 µM was 10%.

**Q.** How did the inhibition at 1000 µM turn out when `N[C@@H](CCC(=O)N[C@@H](CS)C(=O)NCC(=O)O)C(=O)O` [Reduced glutathione] was run?
**A.** Its inhibition at 1000 µM is 38%.

**Q.** `c1ccc(-c2ccccn2)nc1` [α,α'-Dipyridyl] was tested. Which inhibition at 1000 µM did it give?
**A.** Its inhibition at 1000 µM is 30%.

Same assay, conditions: 10 min, pH 7; additive 1 mM; read-out: Percent interference (%)

**Q.** Which inhibition at 1000 µM does the source give for `O[C@H](CS)[C@H](O)CS` (racemic) [Dithiothreitol] here?
**A.** The inhibition at 1000 µM was 86%.

**Q.** For `OCCS` [2-Mercaptoethanol], which inhibition at 1000 µM is on record?
**A.** The inhibition at 1000 µM was 31%.

**Q.** For `O=C1O[C@H]([C@@H](O)CO)C(O)=C1O` [L-ascorbic acid], which inhibition at 1000 µM is on record?
**A.** The inhibition at 1000 µM was 100%.

**Q.** `N[C@@H](CS)C(=O)O` [L-cysteine] was tested. Which inhibition at 1000 µM did it give?
**A.** The inhibition at 1000 µM was 74%.

**Q.** For `c1cnc2c(c1)ccc1cccnc12` [o-Phenanthroline], which inhibition at 1000 µM is on record?
**A.** Its inhibition at 1000 µM is 34%.
